Consider three molecules from paper PMC5054527, “Mechanism of high affinity inhibition of the human urate transporter URAT1” (Scientific Reports, 2016).

Where a chain is given by its changes, count along the chain named. Where two headings read alike, the source gives them in different places.

Common to all, as to experiment: URAT1 uric acid transport activity assay
What all share (format): cell-based

For test [1], the target named is T1, r-L29M rURAT1 point mutant (Rattus norvegicus, UniProt Q3ZAV1, L29M).
T1 sequence (Q3ZAV1 1-553 L29M): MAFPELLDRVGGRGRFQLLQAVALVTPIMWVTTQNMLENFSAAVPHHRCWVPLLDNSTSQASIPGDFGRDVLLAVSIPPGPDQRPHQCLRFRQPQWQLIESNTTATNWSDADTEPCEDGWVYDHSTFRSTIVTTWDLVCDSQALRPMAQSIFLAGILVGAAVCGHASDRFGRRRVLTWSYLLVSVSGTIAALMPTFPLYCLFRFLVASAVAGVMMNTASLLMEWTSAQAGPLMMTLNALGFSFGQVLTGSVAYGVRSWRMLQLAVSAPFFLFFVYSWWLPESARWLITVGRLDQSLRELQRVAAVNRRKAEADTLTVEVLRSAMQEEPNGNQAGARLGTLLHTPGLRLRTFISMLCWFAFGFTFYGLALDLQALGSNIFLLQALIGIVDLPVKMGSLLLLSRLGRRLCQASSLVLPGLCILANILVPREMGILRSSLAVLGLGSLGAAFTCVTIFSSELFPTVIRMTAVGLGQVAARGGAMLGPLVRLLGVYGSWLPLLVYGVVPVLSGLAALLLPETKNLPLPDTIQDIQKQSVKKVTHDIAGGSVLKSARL
An excerpt:
(§1) hURAT1 (GenBank BC053348.1) and rURAT1 (NCBI NM_001034943.1) genes were purchased from Origene Technologies, Inc. and subcloned into pCMV6/neo using NotI, creating pCMV6/neo-hURAT1 and pCMV6/neo-rURAT1. Mutants were produced by polymerase chain reaction (PCR) or site-directed mutagenesis using the QuikChange Lightning Multi Site-Directed Mutagenesis Kit (Agilent Technologies). […] Detailed methods are provided in Supplementary Methods, and primers are listed in Supplementary Table 1. […] Residues in rURAT1 and hOAT1 that correspond to the residues in hURAT1 were identified from aligned protein sequences (Supplementary Fig. 1)[50].
(§2) DNA (10 μg) was mixed with 30 μl of DreamFect Gold (Boca Scientific) in 2 ml OptiMem (Life Technologies). After 20 minutes, 18 ml of media containing 2 × 10^7 cells in suspension was added and mixed, and 200 μl per well were plated onto white clear-bottomed poly-D-lysine coated 96-well plates (BD Biosciences). The cells were assayed the following day.
(§3) Compounds were serially diluted into assay buffer and added to the cells for 5 minutes prior to addition of radiolabelled uric acid substrate. URAT1-expressing cells were incubated with 100 μM ^14C-uric acid for 10 minutes. […] Each treatment was measured in triplicate.
(§4) Unlabelled uric acid was prepared at a 20 mM stock just prior to use in a solution containing 20 mM dibasic potassium phosphate and 20 mM potassium hydroxide.
(§5) Nonlinear regression analyses using GraphPad Prism software were used to calculate the potency of URAT1 inhibitors (IC50 values) from log (inhibitor) versus response - variable slope (four parameters) equations. Statistical significance was assessed using Student’s unpaired t-tests.

Test [2] deals with T2, r-N35S/Y365F/M481I rURAT1 triple point mutant (Rattus norvegicus, UniProt Q3ZAV1, M481I/N35S/Y365F).
T2 construct: hURAT1 and rURAT1 are 553 amino acid proteins with 12 transmembrane segments; expressed in transfected cells; host or cells: HEK-293T
T2 sequence (Q3ZAV1 1-553 N35S/Y365F/M481I): T1 sequence (Q3ZAV1 1-553 L29M) with M29L, N35S, Y365F, M481I
Source text: as §1, §2, §3, §4, §5

Test [3] deals with T3, r-P27S rURAT1 point mutant (Rattus norvegicus, UniProt Q3ZAV1, P27S).
T3 sequence (Q3ZAV1 1-553 P27S): T1 sequence (Q3ZAV1 1-553 L29M) with P27S, M29L
Source text: as §1, §2, §3, §4, §5

The term IC50 denotes the concentration that gives 50% inhibition.

Regarding `CCc1oc2ccccc2c1C(=O)c1cc(Br)c(O)c(Br)c1` [benzbromarone], the IC50 in test [1] is 21 ± 3.3 µM; in test [2], 0.61 ± 0.04 µM; in test [3] it was 16 ± 1.7 µM.
As to `O=C(O)CSc1nnc(Br)n1-c1ccc(C2CC2)c2ccccc12` [lesinurad, 2-((5-bromo-4-(4-cyclopropylnaphthalen-1-yl)-4H-1,2,4-triazol-3-yl)thio)acetic acid], the IC50 was 77 ± 6.6 µM in test [1] (r-L29M, MES pH 5.5, 100 μM 14C-uric acid, read-out: IC50 (uric acid transport)); 1.2 ± 0.14 µM in test [2] (r-N35S/Y365F/M481I, MES pH 5.5, 100 μM 14C-uric acid, read-out: IC50 (uric acid transport)); 77 ± 3.2 µM in test [3] (r-P27S, MES pH 5.5, 100 μM 14C-uric acid, read-out: IC50 (uric acid transport)).
Take `O=C1C(CC[S+]([O-])c2ccccc2)C(=O)N(c2ccccc2)N1c1ccccc1` (stereo not shown) [sulfinpyrazone]: the IC50 in test [1] (r-L29M, HEPES pH 7.3, 100 μM 14C-uric acid, read-out: IC50 (uric acid transport)) was 495 ± 152 µM; in test [2] (r-N35S/Y365F/M481I, HEPES pH 7.3, 100 μM 14C-uric acid, read-out: IC50 (uric acid transport)) it was 49 ± 2.2 µM; in test [3] (r-P27S, HEPES pH 7.3, 100 μM 14C-uric acid, read-out: IC50 (uric acid transport)), 321 ± 77 µM. Also, in test [3] (from IC50 values), the “fold higher affinity of r-P27S compared to rURAT1” value is 2.1 fold.
